According to patent US20250136606A1, “MODULATORS OF TRPML, THEIR COMPOSITIONS AND METHODS OF USE” (Caraway Therapeutics, Inc., priority 2021, published 2025):
Where two headings read alike, the source gives them in different places.

What was measured:
Type in all cases: cell-based
TRPML1 = TRPML1 (Homo sapiens, UniProt Q9GZU1); assay: Fluorescent TRPML1 assay (Fluo4-AM calcium fluorescence in doxycycline-induced HEK-293 Trex cells)
Summary of the method: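 EC50 values come from non-linear regression of percent activity, normalized to on-plate positive and negative controls, with fluorescence read at 480 nm excitation and 540 nm emission. Fluo4-AM-loaded (1 µM) doxycycline-induced HEK-293 Trex cells expressing mutated human TRPML1 were exposed in 10 mM calcium Ringer's to 6 nM–20 µM compound, in triplicate.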

TRPML3 = molecular target: T1, TRPML3 (Homo sapiens, UniProt Q8TDD5); assay: Fluorescent TRPML3 assay (performed as for TRPML1, substituting the TRPML3 subtype)
T1 construct: expressed in transfected cells
T1 sequence (Q8TDD5 1-553): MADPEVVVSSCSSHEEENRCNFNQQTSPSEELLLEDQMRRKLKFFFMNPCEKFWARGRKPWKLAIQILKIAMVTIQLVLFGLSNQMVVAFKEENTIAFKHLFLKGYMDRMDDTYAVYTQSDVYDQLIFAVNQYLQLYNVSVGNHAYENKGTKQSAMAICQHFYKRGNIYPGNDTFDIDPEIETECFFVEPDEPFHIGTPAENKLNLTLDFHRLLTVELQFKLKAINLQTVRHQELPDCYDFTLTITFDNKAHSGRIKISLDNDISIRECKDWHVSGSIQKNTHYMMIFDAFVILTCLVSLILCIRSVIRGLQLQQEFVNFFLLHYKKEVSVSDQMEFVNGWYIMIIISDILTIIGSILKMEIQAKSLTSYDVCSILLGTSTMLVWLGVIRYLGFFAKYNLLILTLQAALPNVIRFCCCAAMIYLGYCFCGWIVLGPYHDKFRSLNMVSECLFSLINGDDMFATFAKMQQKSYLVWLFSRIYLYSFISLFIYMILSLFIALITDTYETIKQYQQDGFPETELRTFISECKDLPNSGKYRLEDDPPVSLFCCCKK
Summary of the method: (§1)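 HEK-293 Trex, dox-induced (0.5 ug/mL), mutated for surface expression. Fluo4-AM 1 micromolar load ~60 min, dark; buffer modified Ringer's, 10 mM Ca. Cpds 20 micromolar–6 nanomolar final, half-log, n=3. Read ex 480/em 540; % activity vs controls; EC50 nonlinear fit.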

TRPML2 = molecular target: T2, TRPML2 (Homo sapiens, UniProt Q8IZK6); assay: Fluorescent TRPML2 assay (performed as for TRPML1, substituting the TRPML2 subtype)
T2 construct: expressed in transfected cells
T2 sequence (Q8IZK6 1-566): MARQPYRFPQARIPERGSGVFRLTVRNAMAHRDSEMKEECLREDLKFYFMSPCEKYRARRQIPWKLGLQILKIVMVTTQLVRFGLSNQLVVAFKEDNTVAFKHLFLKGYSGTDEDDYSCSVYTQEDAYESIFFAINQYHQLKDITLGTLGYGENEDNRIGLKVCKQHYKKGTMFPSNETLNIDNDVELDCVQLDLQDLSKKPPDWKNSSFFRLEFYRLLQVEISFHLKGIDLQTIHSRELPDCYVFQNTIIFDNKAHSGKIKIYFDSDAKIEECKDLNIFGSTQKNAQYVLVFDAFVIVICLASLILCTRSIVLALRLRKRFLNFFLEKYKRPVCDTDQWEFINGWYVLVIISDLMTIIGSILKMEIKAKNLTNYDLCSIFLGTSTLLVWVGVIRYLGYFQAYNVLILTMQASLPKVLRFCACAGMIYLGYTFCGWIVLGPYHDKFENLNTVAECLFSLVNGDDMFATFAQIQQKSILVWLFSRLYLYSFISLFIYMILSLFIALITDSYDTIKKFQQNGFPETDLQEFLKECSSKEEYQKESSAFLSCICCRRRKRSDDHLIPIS
Summary of the method: as §1

Sequence of TRPML1 (Q9GZU1 whole entry L15A/L16A/L577A/L578A, form open): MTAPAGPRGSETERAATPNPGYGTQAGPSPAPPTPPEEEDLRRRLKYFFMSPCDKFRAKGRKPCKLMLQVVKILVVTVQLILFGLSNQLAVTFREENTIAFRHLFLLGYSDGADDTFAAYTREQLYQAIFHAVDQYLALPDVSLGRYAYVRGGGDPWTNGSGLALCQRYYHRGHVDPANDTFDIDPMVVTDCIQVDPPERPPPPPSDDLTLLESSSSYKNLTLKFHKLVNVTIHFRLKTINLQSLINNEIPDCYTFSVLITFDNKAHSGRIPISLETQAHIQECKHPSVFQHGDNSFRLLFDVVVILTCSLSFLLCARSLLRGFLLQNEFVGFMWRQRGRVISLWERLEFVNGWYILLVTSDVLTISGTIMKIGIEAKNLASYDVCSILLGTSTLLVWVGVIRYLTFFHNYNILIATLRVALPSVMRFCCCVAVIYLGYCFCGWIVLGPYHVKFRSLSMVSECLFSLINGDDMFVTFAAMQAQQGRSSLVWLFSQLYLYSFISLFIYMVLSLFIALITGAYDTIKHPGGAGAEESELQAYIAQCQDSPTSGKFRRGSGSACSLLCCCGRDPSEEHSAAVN

Row | Structure (SMILES) | EC50 (TRPML1; fluorescent calcium assay) | EC50 (TRPML3; fluorescent calcium assay) | EC50 (TRPML2; fluorescent calcium assay) | EC50 (TRPML1) | EC50 (TRPML3) | EC50 (TRPML2)
1 | C[C@@H]1CN(c2ncnc3c2c(-c2ccccc2F)cn3-c2cnn(C)c2)[C@@H](C)CN1C(=O)OCC(F)(F)F [Compound 254, 2,2,2-trifluoroethyl (2R,5S)-4-(5-(2-fluorophenyl)-7-(1-methyl-1H-pyrazol-4-yl)-7H-pyrrolo[2,3-d]pyrimidin-4-yl)-2,5-dimethylpiperazine-1-carboxylate] | 100 to 500 nM | 100 to 500 nM | > 2000 nM |  |  | 
2 | C[C@H]1CN(C(=O)OC(C)(C)C)CCN1c1ncnc2c1c(-c1ccccn1)cn2-c1cccc(Cl)c1 [Compound 119, tert-butyl (S)-4-(7-(3-chlorophenyl)-5-(pyridin-2-yl)-7H-pyrrolo[2,3-d]pyrimidin-4-yl)-3-methylpiperazine-1-carboxylate] | < 100 nM | < 100 nM | 100 to 500 nM |  |  | 
3 | CC(C)(C)OC(=O)N1CCN(c2ncnc3c2c(C2CC2)cn3-c2cc(F)cc(F)c2)CC12CC2 [Compound 258, tert-Butyl 7-(5-cyclopropyl-7-(3,5-difluorophenyl)-7H-pyrrolo[2,3-d]pyrimidin-4-yl)-4,7-diazaspiro[2.5]octane-4-carboxylate] | < 100 nM | < 100 nM | 500 to 2000 nM |  |  | 
4 | C[C@H]1CN(C(=O)OC(C)(C)C)CCN1c1ncnc2c1c(N1CCOCC1)cn2C1CCCCC1 [Compound 344, tert-butyl (S)-4-(7-cyclohexyl-5-morpholino-7H-pyrrolo[2,3-d]pyrimidin-4-yl)-3-methylpiperazine-1-carboxylate] | 100 to 500 nM | 100 to 500 nM | > 2000 nM |  |  | 
5 | CC(C)(C)OC(=O)N1CCN(c2ncnc3c2c(C2CC2)cn3-c2cc(F)cc(F)c2)C[C@@H]1CF (single isomer, unassigned) [Compound 270] | 500 to 2000 nM | 100 to 500 nM | > 2000 nM |  |  | 
6 | C[C@@H]1CN(c2ncnc3c2c(CC(F)(F)F)cn3-c2cc(C#N)ccn2)[C@@H](C)CN1C(=O)OC(C)(C)C [Compound 619] |  |  |  | < 100 nM | < 100 nM | 500 to 2000 nM
7 | C[C@H]1CN(C(=O)OC(C)(C)C)CCN1c1ncnc2c1c(N1CCCC1)cn2C1CCCC1 [Compound 338, tert-butyl (S)-4-(7-cyclopentyl-5-(pyrrolidin-1-yl)-7H-pyrrolo[2,3-d]pyrimidin-4-yl)-3-methylpiperazine-1-carboxylate] | 100 to 500 nM | 500 to 2000 nM | > 2000 nM |  |  | 
8 | Cc1nccnc1-c1cn(-c2cc(C#N)ccn2)c2ncnc(N3CCN(C(=O)OC(C)(C)C)C[C@@H]3C)c12 [Compound 319, tert-butyl (S)-4-(7-(4-cyanopyridin-2-yl)-5-(3-methylpyrazin-2-yl)-7H-pyrrolo[2,3-d]pyrimidin-4-yl)-3-methylpiperazine-1-carboxylate] | 500 to 2000 nM | 100 to 500 nM | 500 to 2000 nM |  |  | 
9 | C[C@H]1CN(C(=O)OC(C)(C)C)CCN1c1ncnc2c1c(N1CCC1)cn2-c1cc(F)cc(F)c1 [Compound 498, tert-butyl (S)-4-(5-(azetidin-1-yl)-7-(3,5-difluorophenyl)-7H-pyrrolo[2,3-d]pyrimidin-4-yl)-3-methylpiperazine-1-carboxylate] |  |  |  | < 100 nM | < 100 nM | < 100 nM
10 | C[C@H]1CN(C(=O)OC(C)(C)CF)CCN1c1ncnc2c1c(-c1ccccc1)cn2-c1cnn(C)c1 [Compound 191, 1-fluoro-2-methylpropan-2-yl (S)-3-methyl-4-(7-(1-methyl-1H-pyrazol-4-yl)-5-phenyl-7H-pyrrolo[2,3-d]pyrimidin-4-yl)piperazine-1-carboxylate] | 100 to 500 nM | 100 to 500 nM | 500 to 2000 nM |  |  | 

Now from value to compound:

Row | EC50 (TRPML1; fluorescent calcium assay) | EC50 (TRPML3; fluorescent calcium assay) | EC50 (TRPML2; fluorescent calcium assay) | EC50 (TRPML1) | EC50 (TRPML3) | EC50 (TRPML2) | Structure (SMILES)
11 | < 100 nM | < 100 nM | 100 to 500 nM |  |  |  | C[C@H]1CN(C(=O)OC(C)(C)C)CCN1c1ncnc2c1c(C1CC1(F)F)cn2-c1cc(C#N)ccn1 (stereo partly drawn) [Compound 365, tert-butyl (3S)-4-(7-(4-cyanopyridin-2-yl)-5-(2,2-difluorocyclopropyl)-7H-pyrrolo[2,3-d]pyrimidin-4-yl)-3-methylpiperazine-1-carboxylate]
12 | 100 to 500 nM | 100 to 500 nM | 500 to 2000 nM |  |  |  | C[C@H]1CN(C(=O)OC(C)(C)C)CCN1c1ncnc2c1c(-c1cccnc1)cn2-c1cc(F)cc(F)c1 [Compound 213, tert-butyl-(S)-4-(7-(3,5-difluorophenyl)-5-(pyridin-3-yl)-7H-pyrrolo[2,3-d]pyrimidin-4-yl)-3-methylpiperazine-1-carboxylate]
13 | < 100 nM | < 100 nM | 100 to 500 nM |  |  |  | C[C@@H]1CN(c2ncnc3c2c(C2CC2)cn3-c2cc(F)c(F)c(Cl)c2)CCN1C(=O)OC(C)(C)C [Compound 207, tert-butyl (R)-4-(7-(3-chloro-4,5-difluorophenyl)-5-cyclopropyl-7H-pyrrolo[2,3-d]pyrimidin-4-yl)-2-methylpiperazine-1-carboxylate]
14 |  |  |  | < 100 nM | < 100 nM | 100 to 500 nM | Cc1cn(-c2cccc(F)c2)c2ncnc(N3CCN(C(=O)OC(C)(C)C)C[C@@H]3C)c12 [Compound 683, tert-butyl (S)-4-(7-(3-fluorophenyl)-5-methyl-7H-pyrrolo[2,3-d]pyrimidin-4-yl)-3-methylpiperazine-1-carboxylate]
15 | 100 to 500 nM | < 100 nM | 100 to 500 nM |  |  |  | CC(C)(C)OC(=O)N1CCN(c2ncnc3c2c(-c2ccccc2F)cn3-c2cc(C#N)ccn2)C2CC21 (stereo not drawn) [Compound 412]
16 |  |  |  | < 100 nM | < 100 nM | < 100 nM | Cc1cn(-c2cccc(Cl)c2)c2ncnc(N3CCN(C(=O)OC(C)(C)C)C[C@@H]3C)c12 [Compound 688, tert-butyl (S)-4-(7-(3-chlorophenyl)-5-methyl-7H-pyrrolo[2,3-d]pyrimidin-4-yl)-3-methylpiperazine-1-carboxylate]
17 |  |  |  | 100 to 500 nM | 100 to 500 nM | 500 to 2000 nM | C[C@@H]1CN(c2ncnc3c2c(C2CC2)cn3-c2ccccn2)[C@@H](C)CN1C(=O)OC(C)(C)C [Compound 643, tert-butyl (2R,5S)-4-(5-cyclopropyl-7-(pyridin-2-yl)-7H-pyrrolo[2,3-d]pyrimidin-4-yl)-2,5-dimethylpiperazine-1-carboxylate]
18 |  |  |  | 500 to 2000 nM | 100 to 500 nM | 500 to 2000 nM | C[C@@H]1CN(c2ncnc3c2c(C2CCC2)cn3-c2cc(F)cc(F)c2)[C@@H](C)CN1C(=O)OC(C)(C)C [Compound 648, tert-butyl (2R,5S)-4-(5-cyclobutyl-7-(3,5-difluorophenyl)-7H-pyrrolo[2,3-d]pyrimidin-4-yl)-2,5-dimethylpiperazine-1-carboxylate]
19 | < 100 nM | < 100 nM | < 100 nM |  |  |  | Cc1cn(-c2cc(C#N)ccn2)c2ncnc(N3CCN(C(=O)OC(C)(C)C)C[C@@H]3C)c12 [Compound 476, tert-butyl (S)-4-(7-(4-cyanopyridin-2-yl)-5-methyl-7H-pyrrolo [2,3-d]pyrimidin-4-yl)-3-methylpiperazine-1-carboxylate]
20 | 500 to 2000 nM | 100 to 500 nM | 500 to 2000 nM |  |  |  | Cc1nccnc1-c1cn(-c2cc(F)cc(F)c2)c2ncnc(N3CCN(C(=O)OC(C)(C)C(F)(F)F)C[C@@H]3C)c12 [Compound 247, 1,1,1-trifluoro-2-methylpropan-2-yl (S)-4-(7-(3,5-difluorophenyl)-5-(3-methylpyrazin-2-yl)-7H-pyrrolo[2,3-d]pyrimidin-4-yl)-3-methylpiperazine-1-carboxylate]
21 |  |  |  | < 100 nM | < 100 nM | 500 to 2000 nM | COc1ccnc(-n2cc(C(F)(F)F)c3c(N4C[C@@H](C)N(C(=O)OC(C)(C)C)C[C@@H]4C)ncnc32)c1 [Compound 664, tert-butyl (2R,5S)-4-(7-(4-methoxypyridin-2-yl)-5-(trifluoromethyl)-7H-pyrrolo[2,3-d]pyrimidin-4-yl)-2,5-dimethylpiperazine-1-carboxylate]
